We go through four compounds from publication PMC3879575, “Evidence That GH115 α-Glucuronidase Activity, Which Is Required to Degrade Plant Biomass, Is Dependent on Conformational Flexibility” (The Journal of Biological Chemistry, 2013).

Assay [1] addresses T1, BoAgu115A (BACOVA_03449) (Bacteroides ovatus, UniProt A0ABU3IS40).
T1 construct: mature form (signal peptide removed), N-terminal His6 tag (pET28a), E. coli BL21 DE3, 824 residues, 85 kDa, homodimer; modelled residues 33-856
Description: X-ray crystal structure, […] Å. The settings on record: crystals soaked with 300 mM GlcA; pH 5.5; active site; open-chain form. The format is binding.

Assay [2] deals with T1, BoAgu115A (BACOVA_03449). Description: coupled alpha-D-glucuronidase assay kit, NADH at […] nm. The following applies: PC buffer (50 mM sodium phosphate, 12 mM citrate) pH 6.5, 1 mg/ml BSA, 37 °C. The format is biochemical.
Assay [3] concerns the target BoAgu115A (BACOVA_03449), GH115 α-glucuronidase of Bacteroides ovatus (Bacteroides ovatus). Description: AUC; sedimentation velocity, interference optics, 48,000 rpm, 20 °C, sample volume 400 μl.

Take `O=C[C@H](O)[C@@H](O)[C@H](O)[C@H](O)C(=O)O` [GlcA]: in assay [1], the “X-ray crystal structure, 2.14 Å” value is recorded as “BoAgu115A was co-crystallized with GlcA, which revealed electron density for the uronic acid”. Usually Km stands for the substrate concentration at which the rate is half of its maximum. As for `CO[C@H]1[C@H](O)[C@@H](O)[C@@H](O[C@H]2[C@H](O[C@@H]3CO[C@@H](O[C@@H]4COC(O)[C@H](O)[C@H]4O)[C@H](O)[C@H]3O)OC[C@@H](O[C@@H]3OC[C@@H](O)[C@H](O)[C@H]3O)[C@@H]2O)O[C@@H]1C(=O)O` (stereo partly shown) [XUXX], the Michaelis-Menten constant (Km) in assay [2] was determined as 4.5 mM. Broadly, the stoichiometry N is a count of units in the complex or per binding partner. For “BoAgu115A (BACOVA_03449), GH115 α-glucuronidase of Bacteroides ovatus (enzyme)”, in assay [3], the stoichiometry N turned out to be 2. In the case of UXX, in assay [2], the Km is 19.5 mM.
